This note sets out measurements from BindingDB's records for doi:10.1016/j.ejmech.2020.112994 (North-West University, 2021).

Molecules are shown by their SMILES.

This experiment in a line: Inhibition of EGFR in human A-431 cells assessed as antiproliferative activity incubated for 48 hrs by MTS method.

The IC50 is the midpoint of a concentration-inhibition curve. `COc1cc2c(Nc3ccc(Br)cc3F)ncnc2cc1OCC1CCN(C(=O)Cn2cncc2[N+](=O)[O-])CC1`: the IC50 came out at 1640 nM.
